Assay results: patent publication US20230175022A1 (priority 2020, published 2023)

How the values were obtained:
S. cerevisiae [1] = assay: Growth of S. cerevisiae strains in overlay/underlay candidates (OD600); type: cell-based, Saccharomyces cerevisiae; conditions: 20% (v/v) overlay/underlay; for toxicity to growth (OD600 as proxy for biomass growth): YP+2% (w/v) galactose or glucose, 96 well deepwell plates, production and non-production strains; for toxicity to growth (OD600), with galactose: YP+2% (w/v) galactose; for toxicity to growth (OD600), with glucose: YP+2% (w/v) glucose
Method: To test non-toxic organic overlays/underlays, different non-production background and production strains of S. cerevisiae (Table 1) were inoculated from colonies on YPD agar plates and grown for approximately 24 hours in 96 well deepwell plates containing 300 μL YP+2% (w/v) glucose at 30° C. with 950 rpm shaking (3 mm throw) and maintained at 85% humidity. These cultures were then used to inoculate 96 well deepwell plates containing 300 μL YP+2% (w/v) galactose (YP gal) or glucose (YP glu), with or without addition of 0.04% (w/v) hexanoic acid (HA) plus 20% (v/v) (60 μL) of different overlays/underlays or no organic phase, under the same conditions described for precultures. At three different times (specified in plots), biological triplicate cultures were sampled and optical density at 600 nm (0D600) was measured as a proxy for biomass growth on a SpectraMax plate reader, with dilution in water to allow measurements to be within the linear range of instrumental readings. Averaged OD600s across at least three biological replicates of each strain/overlay condition at each sampling time. Multiple sets of measurements were performed on large groups of overlay and underlay candidates in different batches.

[2] = Partitioning of divarinic acid and divarin into organic overlays (96 well deepwell plate, HPLC); type: physicochemical; conditions: Delft medium+CSM+2% glucose, 48 hours
Method: Several monoester and one diester overlay candidate were compared to IPM for production of divarinic acid and divarin. LSC3-13 precultures were inoculated from YPD streak plates and grown in 300 μL Delft medium+0.79 g/L complete supplement mixture (CSM) (ForMedium, Norfolk, UK)+2% (w/v) glucose in round-bottom square well 96 well deepwell plates for approximately 18 hours overnight at 30° C. with 950 rpm shaking in an Infors plate shaker. 96 well deepwell plate wells containing 300 μL of Delft medium+CSM+2% (w/v) glucose, 60 μL of different overlay solvents, and 0.08% (w/v) butyric acid, were inoculated with 10 μL of preculture and grown for 30° C. with 950 rpm shaking. After 48 hours, the aqueous layer and overlay were sampled on a Bravo automated liquid handling platform (Agilent) and samples from the aqueous and organic overlay phases were subjected to HPLC analysis to measure divarinic acid and divarin production.

S. cerevisiae [3] = assay: Growth of S. cerevisiae strains in overlay/underlay candidates (OD600); type: cell-based, Saccharomyces cerevisiae; conditions: 1-10% (v/v), particularly 1-2.5% (v/v), in IPM and isopar M
[4] = Partitioning of olivetolic acid between organic overlay and aqueous culture phase (shake flask, HPLC); type: physicochemical; conditions: YP+2% galactose culture, not acidified
Method: Precultures of LSC3-2 and LSC3-18 were inoculated from YPD streak plates and grown in 30 mL of YP+2% (w/v) glucose in baffled 250 mL shake flasks for approximately 18 hours overnight at 30° C. with 200 rpm shaking. Baffled 250 mL shake flasks containing 30 mL of YP+2% (w/v) galactose, 5 mL of IPM or diethyl sebacate, and 0.04% (w/v) hexanoic acid, were inoculated with 1 mL of preculture and grown for at 30° C. with 200 rpm shaking. After 24 and 48 hours, samples of cell culture broth plus overlay were sampled into microcentrifuge tubes and stored at −20° C. at least overnight. Sample tubes were thawed and aqueous sample and overlay sample were pipetted into plates for HPLC analysis. Overlay samples were diluted 1:1 v/v with methanol in the HPLC plate prior to analysis.

| Compound | toxicity to growth (OD600 as proxy for biomass growth) (S. cerevisiae [1]) | further results |
| --- | --- | --- |
| CCCCCCCCCCCCCC [tetradecane] | Lack of toxicity |  |
| CCCCOC(=O)CCCCC(=O)OCCCC [dibutyl adipate] | no apparent toxicity |  |
| CCCCCCCCCCCC(=O)OCC [ethyl laurate] | non-toxic |  |
| CCCCCCOC(=O)CCCCC [hexyl hexanoate] | moderately non-toxic |  |
| CCCCCCCC/C=C\CCCCCCCCO [oleyl alcohol] | supports robust growth |  |
| CCOC(=O)CCCCCCCCC(=O)OCC [diethyl sebacate] | modest growth by most strains |  |
| CCCCCCCCCCO [Decanol] | toxic to growth |  |
| CCCCCCCCOC(C)=O [octyl acetate] | toxic |  |
| CCCc1cc(O)cc(O)c1C(=O)O [divarinic acid, 2,4-dihydroxy-6-propylbenzoic acid] |  | partitioning into monoester overlays compared with olivetolic acid and olivetol [2]: partition less effectively |
| 2,2,4-trimethyl-1,3-pentanediol monoisobutyrate [Texanol] | inhibitory to growth |  |
| CCCCCCCCCCCCCC(=O)OCC [ethyl myristate] | non-toxic |  |
| CCCCOC(=O)CCCCCCCCC(=O)OCCCC [Dibutyl sebacate] | completely non-inhibitory to growth |  |
| CC(C)(C)OC(=O)CC(=O)OC(C)(C)C [di-cert-butyl malonate, Di-tert-butyl malonate] |  | toxicity to growth of mixture in IPM or isopar M (S. cerevisiae [3]): much lower toxicity; toxicity to growth (OD600), with galactose (S. cerevisiae [1]): appearing toxic or to induce substantial lag; toxicity to growth (OD600), with glucose (S. cerevisiae [1]): supported growth of all strains |
| CCOC(=O)C(CC)(CC)C(=O)OCC [diethyl diethylmalonate] |  | toxicity to growth (OD600), with galactose (S. cerevisiae [1]): substantial lag; toxicity to growth (OD600), with glucose (S. cerevisiae [1]): modest growth by most strains |
| CCCCCCCCCCCCCC(=O)OC(C)C [IPM, isopropyl myristate] | non-toxic |  |
| CCCCCCCCCCCCCC(=O)OC [methyl myristate] | non-toxic |  |
| CC(C)OC(=O)CCCCC(=O)OC(C)C [diisopropyl adipate] | Some growth was observed |  |
| CCCCCCCCCCCC(=O)OCCCC [butyl laurate] | non-toxic |  |
| CCCCCCCCCC(=O)OC [methyl decanoate] | moderately inhibitory to growth but still allowed for growth |  |
| CCCCCCCCCCCCCCCC [hexadecane] | Lack of toxicity |  |
| CCCCCc1cc(O)cc(O)c1C(=O)O [OA, olivetolic acid] |  | partitioning between overlay and aqueous phase ([4]; IPM overlay): partitioned between the IPM and aqueous phases; partitioning between overlay and aqueous phase ([4]; diethyl sebacate overlay): entirely partitioned into diethyl sebacate |
| CCCCCCCCCCCC [dodecane] | Lack of toxicity |  |
| CCCCCCCC(=O)OC(C)C [Isopropyl octanoate] | moderately inhibitory but allowed for some growth |  |
| CCCCCCCC(=O)OCC(COC(=O)CCCCCCC)OC(=O)CCCCCCC [Tricaprylin] | fairly toxic | toxicity to growth (OD600), with glucose (S. cerevisiae [1]): allowed some growth of all strains |
| CCCc1cc(O)cc(O)c1 [divarin, 1,3-dihydroxy-5-propylbenzene] |  | partitioning into monoester overlays compared with olivetolic acid and olivetol [2]: partition less effectively |
| CCCCCCCCCC(=O)OCC [ethyl decanoate] | increasingly non-toxic |  |
